Laboratory results as given in ChEMBL document CHEMBL2046341, “α-glucosidase inhibitors from Brickellia cavanillesii” (J Nat Prod, 2012).

What was measured:
[1] = Noncompetitive inhibition of Saccharomyces cerevisiae alpha-glucosidase using p-nitrophenyl-alpha-D-glucopyranoside as substrate by Lineweaver-Burk plot and Dixon plot analysis
[2] = Inhibition of Saccharomyces cerevisiae alpha-glucosidase using p-nitrophenyl-alpha-D-glucopyranoside as substrate preincubated for 5 mins prior to substrate addition measured after 35 mins by spectrophotocolorimetric assay
[3] = Competitive inhibition of Saccharomyces cerevisiae alpha-glucosidase using p-nitrophenyl-alpha-D-glucopyranoside as substrate by Lineweaver-Burk plot and Dixon plot analysis
[4] = Mixed type inhibition of Saccharomyces cerevisiae alpha-glucosidase using p-nitrophenyl-alpha-D-glucopyranoside as substrate by Lineweaver-Burk plot and Dixon plot analysis

Q: For CC1(C)C=Cc2c(ccc(C(=O)CO)c2O)O1, which Ki [1] is on record?
A: Its Ki is 130 µM.

Q: And the IC50 [2]?
A: The IC50 was 420 µM.

Q: Which Ki [3] does the source give for C[C@H]1O[C@H](O[C@H]2[C@H](O)[C@@H](O)[C@@H](O[C@H]3[C@H](O)[C@@H](O)C(O)O[C@@H]3CO)O[C@@H]2CO)[C@H](O)[C@@H](O)[C@@H]1N[C@H]1C=C(CO)[C@@H](O)[C@H](O)[C@H]1O (stereo partly drawn) [ACARBOSE] here?
A: The Ki was 260 µM.

Q: What about the IC50 [2] of the same compound?
A: The IC50 was 340 µM.

Q: Which results are given for C=C1C(=O)O[C@@H]2C[C@@H](C)/C=C\C(=O)[C@](C)(O)[C@H](OC(C)=O)[C@@H](OC(=O)/C(C)=C/C)[C@@H]12 [CALEIN C]?
A: Ki [4]: 410 µM; IC50 [2]: 280 µM

Q: With COc1cc(-c2oc3cc(O)cc(O)c3c(=O)c2O)ccc1O [ISORHAMNETIN] as the compound, how does the Ki [4] read?
A: Its Ki is 1910 µM.

Q: What about the IC50 [2] of the same compound?
A: Its IC50 is 160 µM.
